Source: US11548875B2, “Inhibitor compounds for male contraception” (University of Washington, priority 2018, dated 2023)

How the values were obtained:
ALDH2 = molecular target: T1, ALDH2 (Homo sapiens, UniProt P05091); experiment: Purified ALDH2 assay with propanal, NADH fluorescence; type: biochemical; conditions: purified enzyme
T1 construct: histidine-tag (N); made in house; host or cells: bacterial expression (pETite vector, IPTG induction)
T1 sequence (P05091 18-517): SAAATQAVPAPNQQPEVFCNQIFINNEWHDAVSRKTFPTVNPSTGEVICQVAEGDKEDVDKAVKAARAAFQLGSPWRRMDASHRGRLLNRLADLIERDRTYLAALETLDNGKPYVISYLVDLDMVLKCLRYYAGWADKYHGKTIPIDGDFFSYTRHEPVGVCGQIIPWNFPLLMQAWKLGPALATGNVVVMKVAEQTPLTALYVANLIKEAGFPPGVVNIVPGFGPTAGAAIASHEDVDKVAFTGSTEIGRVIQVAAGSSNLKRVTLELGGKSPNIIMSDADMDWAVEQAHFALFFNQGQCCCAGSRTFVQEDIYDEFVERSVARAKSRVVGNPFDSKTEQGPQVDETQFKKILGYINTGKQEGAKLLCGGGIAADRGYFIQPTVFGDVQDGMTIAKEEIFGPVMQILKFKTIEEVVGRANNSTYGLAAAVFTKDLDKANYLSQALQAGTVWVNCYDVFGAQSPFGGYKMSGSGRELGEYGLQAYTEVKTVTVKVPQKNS
From the text: ALDHs were cloned into bacterial expression vector for in vitro enzyme assays and into mammalian expression vectors for cell-based enzyme assays. Human ALDH1A1 cDNA and human ALDH2 cDNA were purchased from OriGene (SC321535) and Open Biosystems (MHS4771-99611182), respectively. and human ALDH1A2 cDNA was cloned from human testis RNA using RT-PCR (Population Division of the Department of Economic and Social Affairs of the United Nations Secretariat. World Population prospects: the 2008 revision. Available at http://www.un.org/esa/population/ (Retrieved Sep. 30, 2011)). For bacterial expression, an open reading frame of ALDH1A1 and ALDH2 were subcloned into the pETite vector (Lucigen) with a 5′ histidine-tag and that of ALDH1A2 into a pET28 vector (Novagen) with a 3′ histidine-tag. Correct frame and sequences were verified through DNA sequencing (UW DNA sequencing facility). ALDHs were induced with 1 mM IPTG and purified using His.Bind resin (Novagen, San Diego, Calif.) and stored in a buffer containing 20 mM Hepes (pH 8), 150 mM KCl and 1 mM EDTA as previously described (Fierce, Y., de Morais Vieira, M., Piantedosi, R., Wyss, A., Blaner, W. S., and Paik, J. (2008) In vitro and in vivo characterization of retinoid synthesis from beta-carotene. Archives of biochemistry and biophysics 472, 126-138). […]
For this, 2 μg purified ALDH2, 20 μM propanal and varying concentrations of inhibitors were incubated at room temperature. Enzyme activity was determined by measuring fluorescence of NADH (Ex, 350 nm/Em, 460 nm) using a Victor3 plate reader (PerkinElmer), and initial velocity was calculated from two consecutive readings over 1 minute.

ALDH1A2 = molecular target: T2, ALDH1A2 (Homo sapiens, UniProt O94788); experiment: Inhibitor screening using purified enzymes: ALDH1A2 activity, retinoic acid production by HPLC (5 uM initial screen, then IC50); type: biochemical; parameters: histidine-tag (C); made in house; host or cells: bacterial expression (pET28 vector, IPTG induction); conditions: purified enzyme
T2 sequence (O94788 1-518): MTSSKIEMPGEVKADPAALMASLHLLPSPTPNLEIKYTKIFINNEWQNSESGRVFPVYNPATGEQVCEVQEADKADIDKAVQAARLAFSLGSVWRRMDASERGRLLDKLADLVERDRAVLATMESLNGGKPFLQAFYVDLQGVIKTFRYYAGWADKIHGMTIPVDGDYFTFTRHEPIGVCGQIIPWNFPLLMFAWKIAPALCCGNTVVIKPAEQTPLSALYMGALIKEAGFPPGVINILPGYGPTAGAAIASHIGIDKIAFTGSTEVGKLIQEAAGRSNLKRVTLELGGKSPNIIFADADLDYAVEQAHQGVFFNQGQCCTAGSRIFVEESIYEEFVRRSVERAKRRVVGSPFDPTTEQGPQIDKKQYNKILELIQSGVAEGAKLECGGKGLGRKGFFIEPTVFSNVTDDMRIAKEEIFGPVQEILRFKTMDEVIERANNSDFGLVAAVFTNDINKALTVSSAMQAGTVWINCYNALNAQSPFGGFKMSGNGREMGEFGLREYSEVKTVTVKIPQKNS
From the text: ALDHs were cloned into bacterial expression vector for in vitro enzyme assays and into mammalian expression vectors for cell-based enzyme assays. Human ALDH1A1 cDNA and human ALDH2 cDNA were purchased from OriGene (SC321535) and Open Biosystems (MHS4771-99611182), respectively. and human ALDH1A2 cDNA was cloned from human testis RNA using RT-PCR (Population Division of the Department of Economic and Social Affairs of the United Nations Secretariat. World Population prospects: the 2008 revision. Available at http://www.un.org/esa/population/ (Retrieved Sep. 30, 2011)). For bacterial expression, an open reading frame of ALDH1A1 and ALDH2 were subcloned into the pETite vector (Lucigen) with a 5′ histidine-tag and that of ALDH1A2 into a pET28 vector (Novagen) with a 3′ histidine-tag. Correct frame and sequences were verified through DNA sequencing (UW DNA sequencing facility). ALDHs were induced with 1 mM IPTG and purified using His.Bind resin (Novagen, San Diego, Calif.) and stored in a buffer containing 20 mM Hepes (pH 8), 150 mM KCl and 1 mM EDTA as previously described (Fierce, Y., de Morais Vieira, M., Piantedosi, R., Wyss, A., Blaner, W. S., and Paik, J. (2008) In vitro and in vivo characterization of retinoid synthesis from beta-carotene. Archives of biochemistry and biophysics 472, 126-138).
ALDH1A1 and ALDH1A2 activity was determined as previously reported (Beedle M T, Stevison F, Zhong G, Topping T, Hogarth C, Isoherranen N, Griswold M D. Sources of All-Trans Retinal Oxidation Independent of the Aldehyde Dehydrogenase 1A Isozymes Exist in the Postnatal Testis. Biol Reprod. 2018 Sep. 21. doi: 10.1093/biolre/ioy200). Briefly, purified enzymes were incubated in a buffer containing 10 mM HEPES buffer (pH 8.0), 150 mM potassium chloride and 2 mM EDTA with 2 mM NAD. Retinoic acid production was determined using HPLC as previously reported (Amory J K, Muller C H, Shimshoni A J, Isoherranen N, Paik J, Moreb J S, Amory D W, Evanoff R, Goldstein A S, Griswold M D. Suppression of spermatogenesis by bisdichloroacetyldiamines is mediated by inhibition of testicular retinoic acid biosynthesis. Journal of Andrology 2011; 32(1):111-119). Inhibitors were diluted in DMSO and added to the reactions. […] For initial screening of inhibitors for ALDH1A2, 1 μg ALDH1A2, 5 μM all-trans-retinal and 5 μM inhibitors were incubated for 15 min at 37° C. […] For this purpose, 0.5 μg ALDH1A2 and […] were incubated for 5 minutes at 37° C. with varying concentrations of inhibitors. To determine specificity toward ALDH1A2, the IC50 for […]

IC50 (ALDH2) [µM]	IC50 (ALDH1A2) [µM]	SMILES
146	0.07	O=C(Nc1cccc(F)c1)c1cn(-c2ccccc2)nc1-c1ccc([N+](=O)[O-])cc1 [Compound 106, N-(3-fluorophenyl)-3-(4-nitrophenyl)-1-phenyl-1H-pyrazole-4-carboxamide]
10.3	0.01	CS(=O)(=O)c1ccc(-c2nn(-c3ccccc3)cc2C(=O)Nc2ccc(F)c(F)c2)cc1 [Compound 207, 3-(4-(Methylsulfonyl)phenyl)-N-(3,4-difluorophenyl)-1-phenyl-1H-pyrazole-4-carboxamide]
145	0.01	CS(=O)(=O)c1ccc(-c2nn(-c3ccccc3)cc2C(=O)Nc2cccc(C(F)(F)F)c2)cc1 [Compound 208, 3-(4-(Methylsulfonyl)phenyl)-N-(3-trifluoromethylphenyl)-1-phenyl-1H-pyrazole-4-carboxamide]
9.6	0.271	CS(=O)(=O)c1ccc(-c2nn(-c3cccc(Cl)c3)cc2C(=O)Nc2cccc(F)c2)cc1 [Compound 239, N-(3-Fluorophenyl)-3-[4-(methylsulfonyl)phenyl]-1-(3-chloropheny)-1H-pyrazole-4-carboxamide]
62	0.076	CS(=O)(=O)c1ccc(-c2nn(-c3cccc(F)c3)cc2C(=O)Nc2ccccc2O)cc1 [Compound 243, N-(2-Hydroxyphenyl)-3-[4-(methylsulfonyl)phenyl]-1-(3-fluorophenyl)-1H-pyrazole-4-carboxamide]
61.2	0.119	CS(=O)(=O)c1ccc(-c2nn(-c3cccc(F)c3)cc2C(=O)Nc2ccc(OC(F)(F)F)cc2)cc1 [Compound 246, N-(4-Trifluoromethoxyphenyl)-3-[4-(methylsulfonyl)phenyl]-1-(3-fluorophenyl)-1H-pyrazole-4-carboxamide]
35.9	0.038	CS(=O)(=O)c1ccc(-c2nn(-c3cccc(F)c3)cc2C(=O)Nc2ccc(C#N)cc2)cc1 [Compound 249, N-(4-Cyanophenyl)-3-[4-(methylsulfonyl)phenyl]-1-(3-fluorophenyl)-1H-pyrazole-4-carboxamide]
85.8	0.291	CS(=O)(=O)c1ccc(-c2nn(-c3cccc(F)c3)cc2C(=O)Nc2cccc(C(F)(F)F)c2)cc1 [Compound 250, N-(3-Trifluoromethyphenyl)-3-[4-(methylsulfonyl)phenyl]-1-(3-fluorophenyl)-1H-pyrazole-4-carboxamide]

Further lines, the molecule ahead of its results:

SMILES	IC50 (ALDH2) [µM]	IC50 (ALDH1A2) [µM]
COC(=O)c1ccc(-c2nn(-c3ccccc3)cc2C=O)cc1 [Cmpd 33]	0.077	0.198
COc1cccc(NC(=O)c2cn(-c3ccccc3)nc2-c2ccc([N+](=O)[O-])cc2)c1 [Compound 103, N-(3-Methoxyphenyl)-3-(4-nitrophenyl)-1-phenyl-1H-pyrazole-4-carboxamide]	313	0.62
O=C(Nc1ccccc1C(F)(F)F)c1cn(-c2ccccc2)nc1-c1ccc([N+](=O)[O-])cc1 [Compound 150, 3-(4-Nitrophenyl)-1-phenyl-N-[2-(trifluoromethyl)phenyl]-1H-pyrazole-4-carboxamide]	13	0.17
O=C(Nc1cccc(C(F)(F)F)c1)c1cn(-c2ccccc2)nc1-c1ccc([N+](=O)[O-])cc1 [Compound 151, 3-(4-Nitrophenyl)-1-phenyl-N-[3-(trifluoromethyl)phenyl]-1H-pyrazole-4-carboxamide]	24.6	0.822
O=C(Nc1ccccc1O)c1cn(-c2ccccc2)nc1-c1ccc([N+](=O)[O-])cc1 [Compound 165, N-(2-Hydroxyphenyl)-3-(4-nitrophenyl)-1-phenyl-1H-pyrazole-4-carboxamide]	23.3	0.211
O=C(Nc1cccc(O)c1)c1cn(-c2ccccc2)nc1-c1ccc([N+](=O)[O-])cc1 [Compound 166, N-(3-Hydroxyphenyl)-3-(4-nitrophenyl)-1-phenyl-1H-pyrazole-4-carboxamide]	95.2	0.779
O=C(Nc1ccc(O)cc1)c1cn(-c2ccccc2)nc1-c1ccc([N+](=O)[O-])cc1 [Compound 167, N-(4-Hydroxyphenyl)-3-(4-nitrophenyl)-1-phenyl-1H-pyrazole-4-carboxamide]	16.9	0.397
Nc1cccc(NC(=O)c2cn(-c3ccccc3)nc2-c2ccc([N+](=O)[O-])cc2)c1 [Compound 173, N-(3-Aminophenyl)-3-(4-nitrophenyl)-1-phenyl-1H-pyrazole-4-carboxamide]	73.7	0.383
CC(=O)Oc1ccccc1NC(=O)c1cn(-c2ccccc2)nc1-c1ccc(S(C)(=O)=O)cc1 [Compound 210, N-(2-Acetoxyphenyl)-3-[4-(methylsulfonyl)phenyl]-1-phenyl-1H-pyrazole-4-carboxamide]	112	0.032
COC(=O)c1cn(-c2ccccc2)nc1-c1ccc([N+](=O)[O-])cc1 [Compound 229, Methyl 3-(4-nitrophenyl)-1-phenyl-1H-pyrazole-4-carboxylate]	15.2	0.217
CS(=O)(=O)c1ccc(-c2nn(-c3ccccc3F)cc2C(=O)Nc2ccccc2O)cc1 [Compound 238, N-(2-Hydroxphenyl)-3-[4-(methylsulfonyl)phenyl]-1-(2-fluoropheny)-1H-pyrazole-4-carboxamide]	40.9	–
